The results in this text go back to patent US4447439A, “2-Cyclic amino-2-(1,2-benzisoxazol-3-yl)acetic acid ester derivatives, process for the preparation thereof and composition containing the same” (priority 1981, dated 1984).

In brackets after ≈: the same amount, converted by molar mass. Structures can show the parent of a compound that is named as a salt. Where two headings read alike, the source gives them in different places.

In data set [1] the test system is section of the ileum (contractile response induced by transmural stimulation). The data set is described as follows: Inhibitory effect on contractile response induced by transmural stimulation (Anti-TMS). The data set is classed as cell-based, male Hartley strain guinea pig. The settings on record: guinea pig ileum, transmural stimulation 5 Hz, 20-30 V, compound applied 20 minutes before; for IC50: Cavia porcellus, read-out: IC50 Anti-TMS (antispasmodic activity in vitro). On the procedure:
(1) Inhibitory effect on contractile response induced by transmural stimulation (Anti-TMS)
From male Hartley strain guinea pig, weighing 300-350 g, section of the ileum about 3 cm in length was prepared and mounted in Tyrode's solution kept at 35° C. and oxygenated with 95% O2 --5% CO2, and responses of the ileum were recorded isotonically with an initial tension of 1 g. The ileum was stimulated electrically by the method of W. D. M. Paton [cf. […] The electrode was made of platinum and the intraluminal electrode was used at a frequency of 5 Hz and at a voltage sufficient to give a maximal response (20-30 V). Test compounds were applied 20 minutes before the stimulation.
(§1) In the experiments (1) and (2), each compound was tested in three different concentrations.

The nature of another data set: Mydriatic activity. The settings on record: rat, in vivo, po.
Data set [2] has as its system section of the ileum (contractile response induced by acetylcholine). The data set is described as follows: Inhibitor effect on contractile response induced by acetylcholine (Anti-ACh). The data set is classed as cell-based, male Hartley strain guinea pig. The settings on record: guinea pig ileum, acetylcholine 2×10^-8 g/ml, compound applied 2 minutes before; for IC50: Cavia porcellus, read-out: IC50 Anti-ACh (antispasmodic activity in vitro). On the procedure: (2) Inhibitor effect on contractile response induced by acetylcholine (Anti-ACh)
In the same manner as described in the above experiment (1), ileum preparation was prepared and mounted in Tyrode's solution. The response of the ileum to acetylcholine (2×10^-8 g/ml) were recorded isotonically. Test compounds were applied 2 minutes before adding the acetylcholine.
as §1

For data set [3], the system named is stomach (contractile response induced by carbachol). The data set is described as follows: Inhibitor effect on contractile response induced by carbachol (Anti-Car). The note with it: Rattus norvegicus, iv; anesthetized rats, carbachol 10 μg/kg, i.v.; read-out: ID50 Anti-Car (antispasmodic activity in vivo). Set-up: species or system male Wistar strain rats. On the procedure:
(1) Inhibitor effect on contractile response induced by carbachol (Anti-Car)
This effect was examined using the strain gauge force transducer as described by X. B. Pascaud et al. [cf. Am. […] The transducer was sutured on the serosa of the stomach in anesthetized male Wistar strain rats, weighing about 250 g. This transducer can record simultaneously contractions and tone variation of the muscle. The contractile response induced by carbachol (10 μg/kg, i.v.) was estimated before and after administration of test compound. Inhibitory effect of test compound was expressed as a percent inhibition of the response.

The test system of data set [4] is spontaneous gastric motility. The data set is described as follows: Inhibitory effect on spontaneous gastric motility (Anti-SGM). Also noted: species or system male Wistar strain rats. The note with it: Rattus norvegicus; conscious rats, fasted 18 hours, oral; read-out: ID50 Anti-SGM (antispasmodic activity in vivo). As for the experimental part: (2) Inhibitory effect on spontaneous gastric motility (Anti-SGM)
(§2) This effect was examined using male Wistar strain rats, weighing about 250 g, with chronically implanted strain gauge force transducer as mentioned in the experiment (1). The rats were usually allowed to stand for 3-5 days for recovery from the surgery and fasted for 18 hours before experiment. Then, spontaneous gastric motility in conscious rats were recorded and the sum of amplitude of each contraction was calculated every 15 minutes. Inhibitory effect of test compound by oral administration was expressed as a percent inhibition of initial spontaneous motility.

Data set [5] can be described thus: Safety index (ED50 of mydriatic activity / ID50 of Anti-SGM). Also noted: species or system male Wistar strain rats. The settings on record: rat, in vivo, po. As for the experimental part: as §2, with “motility. ID50 value, i.e., the dose required for 50% inhibition of spontaneous motility, was determined from regression line calculated by the maximum percent inhibition at each dose level.” for “motility.”

Another data set in a line: Acute lethal toxicity. Also noted: species or system male and female Jcl:SD strain rats. The settings on record: rat, in vivo, po, single oral, 7 days.
The next data set in a line: in vivo. The note with it: rat, po.

Source text for in vivo: This activity was examined according to the method of P. Pelewka [cf.

Broadly, the IC50 is the concentration that inhibits the measured activity by half. Take `CN1[C@@H]2CC[C@H]1C[C@@H](OC(=O)C(CO)c1ccccc1)C2` (stereo partly shown) [Atropine sulfate, atropine sulfate, reference compound]: the values for the half-inhibitory concentration (IC50) in data set [1] and in data set [2] were 0.035 µg/mL and 0.005 µg/mL, respectively. For the same compound, the figures for the ED50 (in the data set “Mydriatic activity”; in data set [3]; in data set [4]) were 3.5 mg/kg, 0.0084 mg/kg and 1.7 mg/kg, respectively.

As to `CCN1CCCC(OC(=O)C(c2noc3ccccc23)N2CCCCCC2)C1` (stereo not shown) [Example 3], the half-maximal inhibitory concentration (IC50) in data set [1] worked out at 0.11 µg/mL (≈ 0.285 µM); in data set [2], 0.042 µg/mL (≈ 0.109 µM).

Take `CN1CCCC(OC(=O)C(c2noc3ccccc23)N2CCCCCC2)C1` (stereo not shown) [Example 8]: the half-maximal inhibitory concentration (IC50) is 0.11 µg/mL (≈ 0.296 µM) in data set [1] and 0.039 µg/mL (≈ 0.105 µM) in data set [2].

For `CN1CCC(OC(=O)C(c2noc3ccccc23)N2CCCCCC2)CC1` (stereo not shown) [Example 16, 1-methyl-4-piperidyl 2-hexamethyleneimino-2-(1,2-benzisoxazol-3-yl)acetate], the IC50 in data set [1] stood at 0.034 µg/mL (≈ 0.0915 µM); in data set [2], 0.023 µg/mL (≈ 0.0619 µM).

In general, LD50 refers to the dose at which mortality reaches 50%. The low end stands for greater toxicity, the high end for lower toxicity. Turning to `CC[N+]1(C)CCC(OC(=O)C(c2noc3ccccc23)N2CCCCCC2)CC1.[I-]` (stereo not shown) [Example 17(i), 1-ethyl-1-methyl-4-[2-hexamethyleneimino-2-(1,2-benzisoxazol-3-yl)acetoxy]piperidinium iodide], the IC50 in data set [1] was determined as 0.14 µg/mL. In addition, the ED50 in the data set “Mydriatic activity” was > 3000 mg/kg; in data set [3], 0.0187 mg/kg; in data set [4], 26.3 mg/kg. Further, the selectivity ratio in data set [5] (ED50 of mydriatic activity divided by ID50 of Anti-SGM, read-out: Safety index) is > 114. The 50% lethal dose (LD50) at 168 h in “Acute lethal toxicity” (female rats) amounted to 6320 mg/kg; in the data set “Acute lethal toxicity” (male rats) it was 5430 mg/kg.

`C[N+]1(C)CCC(OC(=O)C(c2noc3ccccc23)N2CCCCCC2)CC1.[I-]` (stereo not shown) [Example 20, 1,1-dimethyl-4-[2-hexamethyleneimino-2-(1,2-benzisoxazol-3-yl)acetoxy]piperidinium iodide]: the IC50 amounted to 0.12 µg/mL in data set [1] and 0.02 µg/mL in data set [2].

On to `C[N+]1(C)CCC(OC(=O)C(c2noc3ccccc23)N2CCCCC2)CC1.[I-]` (stereo not shown) [Example 21, 1,1-Dimethyl-4-[2-piperidino-2-(1,2-benzisoxazol-3-yl)acetoxy]piperidinium iodide], for which the half-maximal inhibitory concentration (IC50) in data set [1] amounted to 0.09 µg/mL; in data set [2], 0.032 µg/mL.

Turning to `CC[N+]1(C)CCCC(OC(=O)C(c2noc3ccccc23)N2CCCCCC2)C1` (stereo not shown) [Example 22], the 50% inhibitory concentration (IC50) was 0.096 µg/mL in data set [1] and 0.022 µg/mL in data set [2].

For `CC1CCCN(C(C(=O)OC2CC[N+](C)(C)CC2)c2noc3ccccc23)C1` (stereo not shown) [Example 23], the half-inhibitory concentration (IC50) in data set [1] came out at 0.074 µg/mL; in data set [2], 0.036 µg/mL.

For the compound `C[N+]1(C)CCCC(OC(=O)C(c2noc3ccccc23)N2CCCCCC2)C1` (stereo not shown) [Example 24], the results for the IC50 in data set [1] and in data set [2] were 0.1 µg/mL and 0.036 µg/mL, respectively.

As to `C[N+]1(C)CCC(OC(=O)C(c2noc3ccccc23)N2CCCCCCC2)CC1` (stereo not shown) [Example 27], the values for the IC50 in data set [1] and in data set [2] were 0.088 µg/mL and 0.014 µg/mL, respectively.

`C[N+]1(C)CCC(OC(=O)C(c2noc3ccccc23)N2CCCCCC2)CC1` (stereo not shown) [Example 28]: the “IC50 Anti-TMS (antispasmodic activity in vitro)” value (shortened to “IC50 Anti-TMS”) in data set [1] was 0.1 µg/mL. The “IC50 Anti-ACh (antispasmodic activity in vitro)” value in data set [2] came to 0.013 µg/mL.

With `CC[N+]1(C)CCC(OC(=O)C(c2noc3ccccc23)N2CCCCCC2)CC1` (stereo not shown) [Example 30], the IC50 in data set [1] was found to be 0.18 µg/mL; in data set [2], 0.064 µg/mL.

`CC[N+]1(C)CCC(OC(=O)C(c2noc3ccccc23)N2CCCCCC2)CC1` (stereo not shown) [Example 31]: the “IC50 Anti-TMS” value in data set [1] is 0.12 µg/mL. The “IC50 Anti-ACh (antispasmodic activity in vitro)” value in data set [2] was found to be 0.055 µg/mL.

For `CC[N+]1(C)CCC(OC(=O)C(c2noc3ccccc23)N2CCCC2)CC1` (stereo not shown) [Example 33], the IC50 in data set [1] was 0.18 µg/mL; in data set [2], 0.032 µg/mL.

Consider `CC[N+]1(C)CCC(OC(=O)C(c2noc3ccccc23)N2CCCCC2)CC1` (stereo not shown) [Example 34], for which the half-maximal inhibitory concentration (IC50) in data set [1] (20 min) was 0.044 µg/mL; in data set [2], 0.033 µg/mL.

As for `C[N+]1(C)CCC(OC(=O)C(c2noc3ccccc23)N2CCCCC2)CC1` (stereo not shown) [Example 36], the IC50 is 0.11 µg/mL in data set [1] and 0.029 µg/mL in data set [2].

Regarding `CC1CCN(C(C(=O)OC2CC[N+](C)(C)CC2)c2noc3ccccc23)CC1` (stereo not shown) [Example 37], the results for the IC50 in data set [1] and in data set [2] were 0.24 µg/mL and 0.072 µg/mL, respectively.

For the compound `C[N+]1(C)CCC(OC(=O)C(c2noc3ccccc23)N2CCCCCC2)CC1` (stereo not shown) [Example 38], the “IC50 Anti-TMS” value in data set [1] turned out to be 0.027 µg/mL. In data set [2], the half-inhibitory concentration (IC50) is 0.024 µg/mL.

`C[N+]1(C)CCC(OC(=O)C(c2noc3ccccc23)N2CCCC2)CC1` (stereo not shown) [Example 39]: the IC50 in data set [1] is 0.058 µg/mL; in data set [2], 0.051 µg/mL.

For `C[N+]1(C)CCC(OC(=O)C(c2noc3ccc(Cl)cc23)N2CCCCCC2)CC1` (stereo not shown) [Example 42], the half-maximal inhibitory concentration (IC50) in data set [1] was found to be 0.34 µg/mL; in data set [2], 0.078 µg/mL.

As for `C[N+]1(C)CCC(OC(=O)C(c2noc3ccc(F)cc23)N2CCCCCC2)CC1` (stereo not shown) [Example 44], the figures for the IC50 in data set [1] and in data set [2] were 0.29 µg/mL and 0.08 µg/mL, respectively.

Consider `CCCC[N+]1(C)C2CC(OC(=O)C(CO)c3ccccc3)CC1C1OC12` (stereo not shown) [Scopolamine-N-butyl bromide, scopolamine-N-butyl bromide, reference compound], for which the IC50 in data set [1] is 0.44 µg/mL; in data set [2], 0.089 µg/mL. Besides, the selectivity ratio in data set [5] was determined as 2. Also, the ED50 in data set [3] came out at 0.0201 mg/kg; in data set [4] it was 100 mg/kg; in the data set “in vivo”, 227 mg/kg.
